Measured values taken from patent US20120184591A1, “METHODS FOR TREATING PROSTATITIS” (WATSON PHARMACEUTICALS, INC., priority 2011, published 2012).

Tests used:
[1] = Study SI06004: plasma pharmacokinetics of silodosin and metabolites, 8 mg once daily for 7 days; type: in vivo, human; conditions: for Tmax: 8 mg once daily, immediate-release
Procedure: FIG. 2 depicts the mean steady-state silodosin plasma concentration versus time profile in fed target-aged subjects after administering 8 mg silodosin QD (from Study SI06004).
This is illustrated in Table 1 and FIG. 2. Study SI06004 assessed the area under the plasma concentration time curve for silodosin and four of its metabolites, as well as safety and tolerability, following administration of 8 mg once daily for 7 days.

patients with CP/CPPS = conditions: 10 mg once daily, versus placebo; cited from earlier work
men with CP/CPPS [2] = test: 12-week double-blind placebo-controlled Phase II study (NCT00740779): efficacy (NIH-CPSI, SF-12, GRA); type: in vivo, human; conditions: for SF-12 mental component, adjusted mean difference versus placebo (95% CI) / SF-12 mental component, change from baseline, mean ± SD / SF-12 physical component, adjusted mean difference versus placebo (95% CI) / SF-12 physical component, change from baseline, mean ± SD: study end, ITT
Procedure: (§1) A 12-week, multicenter, double-blind, placebo-controlled, Phase II study (ClinicalTrials.gov identifier: NCT00740779) was conducted between September 2008 and October 2009. The protocol was approved by an Institutional Review Board before study initiation, and the study was conducted in accordance with the Declaration of Helsinki and the US Code of Federal Regulations. The primary end point was change from baseline to week 12 in the NIH—CPSI total score. Secondary end points included safety; change from baseline in NIH—CPSI pain, urinary, and HRQoL subscores; and change from baseline in SF-12 physical and mental component scores. In addition, responder analyses were conducted for the global response assessment (GRA) and NIH—CPSI at week 12.
Study participants were recruited from 32 centers across the United States, including mostly community-based practices and a few university medical centers. […] Patients were excluded if they had participated in a study of an investigational agent within the past 30 days, had experienced two or more urinary tract infections within the previous 12 months, or had medical conditions potentially precluding safe study participation or affecting study results, such as significant postural hypotension, abnormal test results of digital rectal examinations (except benign prostate enlargement), prostate-specific antigen >10.0 ng/mL, and liver or renal insufficiency. Patients treated with medications that might confound study results, such as α-blockers (for conditions other than CP/CPPS), 5α-reductase inhibitors, tricyclic antidepressants, androgens, and ketoconazole, had to undergo appropriate washout periods to be eligible.
(§2) Patients were randomized 1:1:1 to receive silodosin 4 mg, silodosin 8 mg, or placebo once daily with food at breakfast for 12 weeks. Two doses of silodosin were chosen to evaluate the dose dependency of treatment effects in patients with CP/CPPS. The maximum dose of silodosin 8 mg/d was selected based on its established safety and efficacy profile in patients with BPH.
(§3) Baseline parameters were assessed after a 4-week screening period. All efficacy assessments were made with self-administered patient surveys. Patients completed the NIH—CPSI and subscales, GRA scale, and pain medication usage surveys at baseline and at weeks 4, 8, and 12 of the study. SF-12 was completed at baseline and at study end (week 12 or time of discontinuation). Safety was monitored over the course of the study through adverse events reporting, clinical laboratory tests, and vital signs assessments.
(§4) All efficacy and safety data were summarized using descriptive statistics for continuous variables and frequency distributions for categorical variables. Efficacy end points were analyzed in the intent-to-treat (ITT) population, which consisted of all randomized patients with a baseline assessment for the NIH—CPSI total score. The primary efficacy variable and continuous secondary variables were analyzed for significance at α=0.05 (with Bonferroni correction for multiple comparisons) using analysis of covariance models with the baseline measurement of the efficacy variable as the covariate and effects of treatment. Because of the small number of patients in many participating centers, study center was not included in statistical analysis models. All analyses were conducted with SAS® v8.2 (SAS Institute Inc., Cary, N.C.). Last observation carried forward (LOCF) was used to impute missing values. […] GRA and NIH—CPSI responder analyses were done with chi-square tests at α=0.025 (two-sided) to account for multiple comparisons.

men with CP/CPPS [3] = test: 12-week Phase II study (NCT00740779): safety and tolerability (adverse events); type: in vivo, human
Procedure: as §1, §2, §3, §4

α1A receptor = molecular target: T1, α1A receptor (Homo sapiens, UniProt P35348); conditions: cited from earlier work
T1 sequence (P35348 1-466): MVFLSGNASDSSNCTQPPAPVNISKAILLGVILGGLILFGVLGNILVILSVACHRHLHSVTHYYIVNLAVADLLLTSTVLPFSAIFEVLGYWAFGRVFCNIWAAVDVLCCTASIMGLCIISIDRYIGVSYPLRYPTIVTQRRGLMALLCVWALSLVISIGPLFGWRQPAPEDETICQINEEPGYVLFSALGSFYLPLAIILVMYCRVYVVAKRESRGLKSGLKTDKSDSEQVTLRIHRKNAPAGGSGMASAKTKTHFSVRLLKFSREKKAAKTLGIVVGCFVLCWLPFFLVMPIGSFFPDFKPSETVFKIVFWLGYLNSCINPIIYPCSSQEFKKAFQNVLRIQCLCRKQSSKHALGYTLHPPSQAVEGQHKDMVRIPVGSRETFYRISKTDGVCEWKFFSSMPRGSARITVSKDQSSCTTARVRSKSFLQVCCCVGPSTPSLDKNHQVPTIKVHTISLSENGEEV

[4] = Study SI07004: silodosin pharmacokinetics after seven daily doses of 4 mg or 8 mg in healthy male subjects; type: in vivo, human; conditions: after 7 days of dosing; for AUC(0-t) / half-life / Cmax / Tmax: male, human, plasma
Text: FIG. 3 depicts the mean silodosin plasma concentration time profile by dose level and timepoint after multiple doses (from Study SI07004).

[5] = 8 mg once daily for 7 days, mean (SD)
[6] = 4 mg, Week 12 ET (early termination counted as nonresponse)

C[C@H](Cc1cc2c(c(C(N)=O)c1)N(CCCO[C@@H]1O[C@H](C(=O)O)[C@@H](O)[C@H](O)[C@H]1O)CC2)NCCOc1ccccc1OCC(F)(F)F [3213G]
AUC(0-24) [1, 5]: 1660.5 (647.23) ng * hr/mL
Cmax [1, 5]: 102.4 (36.51) ng/mL
Tmax ([1]; mean (SD)): 5.5 (2.29) hr

COc1cc2nc(N(C)CCCNC(=O)C3CCCO3)nc(N)c2cc1OC (stereo not shown) [alfuzosin]
Reducing the symptoms of CP/CPPS (patients with CP/CPPS): not more effective than placebo

C[C@H](Cc1cc2c(c(C(N)=O)c1)N(CCC(=O)O)CC2)NCCOc1ccccc1OCC(F)(F)F [compound 3293]
AUC(0-24) [1, 5]: 373.0 (141.72) ng * hr/mL
Cmax [1, 5]: 34.3 (12.58) ng/mL
Tmax ([1]; mean (SD)): 4.1 (1.29) hr

C[C@H](Cc1cc2c(c(C(N)=O)c1)N(CCCO)CC2)NCCOc1ccccc1OCC(F)(F)F [silodosin]
SF-12 mental component, adjusted mean difference versus placebo (95% CI) (men with CP/CPPS [2]; 4 mg once daily): 1.5 (−1.9, 4.9)
SF-12 mental component, change from baseline, mean ± SD (men with CP/CPPS [2]; 4 mg once daily): 3.2 ± 7.3
SF-12 physical component, adjusted mean difference versus placebo (95% CI) (men with CP/CPPS [2]; 4 mg once daily): 3.0 (0.01, 6.0)
SF-12 physical component, change from baseline, mean ± SD (men with CP/CPPS [2]; 4 mg once daily): 4.2±8.1
NIH-CPSI pain score, adjusted mean difference versus placebo (95% CI) (men with CP/CPPS [2]; 4 mg once daily, week 12, ITT): −1.6 (−3.4, 0.3)
NIH-CPSI pain score, change from baseline, mean ± SD (men with CP/CPPS [2]; 4 mg once daily, week 12, ITT): −5.9 ± 4.5
NIH-CPSI quality-of-life impact score, adjusted mean difference versus placebo (95% CI) (men with CP/CPPS [2]; 4 mg once daily, week 12, ITT): −1.5 (−2.8, −0.3)
NIH-CPSI quality-of-life impact score, change from baseline, mean ± SD (men with CP/CPPS [2]; 4 mg once daily, week 12, ITT): −4.1 ± 3.1
NIH-CPSI total score, change from baseline, mean ± SD (men with CP/CPPS [2]; 4 mg once daily, week 12, ITT): −12.1±9.3
NIH-CPSI urinary symptoms score, adjusted mean difference versus placebo (95% CI) (men with CP/CPPS [2]; 4 mg once daily, week 12, ITT): −1.4 (−2.5, −0.3)
NIH-CPSI urinary symptoms score, change from baseline, mean ± SD (men with CP/CPPS [2]; 4 mg once daily, week 12, ITT): −2.2 ± 2.7
GRA responders, patients (men with CP/CPPS [2]; [6]): 55.8%
NIH-CPSI responders, patients (men with CP/CPPS [2]; [6]): 59.6%
SF-12 mental component, adjusted mean difference versus placebo (95% CI) (men with CP/CPPS [2]; 8 mg once daily): −1.4 (−4.9, 2.1)
SF-12 mental component, change from baseline, mean ± SD (men with CP/CPPS [2]; 8 mg once daily): 0.5 ± 7.2
SF-12 physical component, adjusted mean difference versus placebo (95% CI) (men with CP/CPPS [2]; 8 mg once daily): 2.7 (−0.4, 5.8)
SF-12 physical component, change from baseline, mean ± SD (men with CP/CPPS [2]; 8 mg once daily): 4.4 ± 7.0
NIH-CPSI pain score, adjusted mean difference versus placebo (95% CI) (men with CP/CPPS [2]; 8 mg once daily, week 12, ITT): −0.5 (−2.4, 1.4)
NIH-CPSI pain score, change from baseline, mean ± SD (men with CP/CPPS [2]; 8 mg once daily, week 12, ITT): −4.9 ± 5.0
NIH-CPSI quality-of-life impact score, adjusted mean difference versus placebo (95% CI) (men with CP/CPPS [2]; 8 mg once daily, week 12, ITT): −0.7 (−2.0, 0.5)
NIH-CPSI quality-of-life impact score, change from baseline, mean ± SD (men with CP/CPPS [2]; 8 mg once daily, week 12, ITT): −3.5 ± 3.0
NIH-CPSI urinary symptoms score, adjusted mean difference versus placebo (95% CI) (men with CP/CPPS [2]; 8 mg once daily, week 12, ITT): −0.8 (−1.9, 0.3)
NIH-CPSI urinary symptoms score, change from baseline, mean ± SD (men with CP/CPPS [2]; 8 mg once daily, week 12, ITT): −1.8 ± 2.4
NIH-CPSI responders, patients (men with CP/CPPS [2]; 8 mg, Week 12 ET (early termination counted as nonresponse)): 46.7%
Drug-related adverse events leading to discontinuation, all (men with CP/CPPS [3]; 4 mg): 3 n
Drug-related adverse events leading to discontinuation: RE/libido decreased (men with CP/CPPS [3]; 4 mg): 1 n
Drug-related adverse events leading to discontinuation: ejaculation failure (men with CP/CPPS [3]; 4 mg): 1 n
Drug-related adverse events leading to discontinuation: rash (men with CP/CPPS [3]; 4 mg): 1 n
Patients who discontinued study participation because of a drug-related adverse event (men with CP/CPPS [3]; 4 mg): 5.8%
Drug-related adverse event: Headache, patients (men with CP/CPPS [3]; 4 mg, safety population (n = 52)): 0 n
Patients who experienced serious adverse events (men with CP/CPPS [3]; 4 mg, not considered drug-related by the investigator (severe urosepsis; moderate syncope)): Two
Drug-related adverse events leading to discontinuation, all (men with CP/CPPS [3]; 8 mg): 6 n
Drug-related adverse events leading to discontinuation: RE (men with CP/CPPS [3]; 8 mg): 4 n
Drug-related adverse events leading to discontinuation: nasal congestion (men with CP/CPPS [3]; 8 mg): 2 n
Patients who discontinued study participation because of a drug-related adverse event (men with CP/CPPS [3]; 8 mg): 13.3%
Tmax ([1]; human, plasma, oral, 8 mg, mean (SD), read-out: Tmax): ~2.6 h
AUC(0-t) ([1]; human, plasma, oral, 8 mg once daily for 7 days, mean (SD), read-out: AUC(0-24)): 373 ng·h/mL
Cmax ([1]; human, plasma, oral, 8 mg once daily for 7 days, mean (SD), read-out: Cmax): 61.6 ng/mL
half-life ([1]; human, plasma, oral, 8 mg once daily for 7 days, mean ± SD): 13.3 h
Selectivity for the α1A receptor relative to α1B and α1D receptors (α1A receptor): high selectivity
kel, median ([4]; 4 mg): 0.0489 h⁻¹
kel, mean ([4]; 4 mg, n 19): 0.0552 h⁻¹
kel, median ([4]; 8 mg): 0.0573 h⁻¹
kel, mean ([4]; 8 mg, n 21): 0.0551 h⁻¹
AUC(0-t) ([4]; 4 mg, N = 22, read-out: AUC [0-24], mean): 159 ng·h/mL
half-life ([4]; 4 mg, n 19, read-out: t½, mean (converted)): 15.3 h
AUC(0-t) ([4]; 4 mg, read-out: AUC [0-24], median): 156 ng·h/mL
Cmax ([4]; 4 mg, read-out: Cmax, mean): 28.4 ng/mL
Cmax ([4]; 4 mg, read-out: Cmax, median): 26.1 ng/mL
Tmax ([4]; 4 mg, read-out: Tmax, mean): 2.4 h
Tmax ([4]; 4 mg, read-out: Tmax, median): 2 h
half-life ([4]; 4 mg, read-out: t½, median (converted)): 14.2 h
AUC(0-t) ([4]; 8 mg, N = 22, read-out: AUC [0-24], mean): 297 ng·h/mL
half-life ([4]; 8 mg, n 21, read-out: t½, mean (converted)): 14.4 h
AUC(0-t) ([4]; 8 mg, read-out: AUC [0-24], median): 276 ng·h/mL
Cmax ([4]; 8 mg, read-out: Cmax, mean): 51.1 ng/mL
Cmax ([4]; 8 mg, read-out: Cmax, median): 50.3 ng/mL
Tmax ([4]; 8 mg, read-out: Tmax, mean): 2.5 h
Tmax ([4]; 8 mg, read-out: Tmax, median): 2 h
half-life ([4]; 8 mg, read-out: t½, median (converted)): 12.1 h
